From patent US9815863B2, “Hydrogen bond forming fluoro ketolides for treating diseases” (priority 2010, dated 2017)
Converted amounts (≈) assume the structure as drawn.

Assays:
[1] = test system: Streptococcus pneumoniae Pen^S, Tel^S, Mac^S; test: MIC against streptococci clinical isolates (Table 3); type: cell-based; conditions: Streptococcus pneumoniae, 10 strains
[2] = test system: Streptococcus pyogenes Tel^R, Mac^R; test: as above; type: cell-based; conditions: Streptococcus pyogenes
[3] = test system: Streptococcus pyogenes Tel^S, Mac^S; test: as above; type: cell-based; conditions: Streptococcus pyogenes, 10 strains
[4] = test system: Streptococcus pneumoniae Pen^R, Tel^1/^R, Mac^R; test: as above; type: cell-based; conditions: Streptococcus pneumoniae, S. pneumoniae Pen^R, 12 strains, constitutive ermB
[5] = test system: eukaryotic ribosome (rabbit reticulocyte lysate); test: Rabbit reticulocyte cell-free translation system, luciferase synthesis; type: biochemical; conditions: concentrations up to 50 μM
Procedure: The rabbit reticulocyte cell-free translation system (Promega, Cat. No. L4540) was used to assay the effect of the drugs on activity of the eukaryotic ribosome. […] Polyadenylated luciferase mRNA (Promega, Cat. No. L4561) was denatured before use by incubating the RNA at 65° C. for 3 min and then placed on ice. Translation mix (2 μL) was mixed with the rabbit reticulocyte lysate to start the reaction. The translation mix contained 0.3 μL of denatured luciferase mRNA (0.3 μg), 0.2 μL of 1 mM amino acid mixture, 0.2 μL of ribonuclease inhibitor (8U, Roche, Cat. No. 03 335 399001), 0.4 μL of 2.5 M potassium chloride, and 0.9 μL of water. Reactions were incubated at 30° C. for 30 min and then placed on ice.

[6] = test system: S. aureus ribosomes (23S rRNA); test: RNA footprinting (ribosome chemical probing), wild-type S. aureus ribosomes; type: binding; conditions: 100 μM antibiotic
Procedure: Ribosome chemical probing. rRNA probing was done following standard protocols (Merryman, C., and H. F. Noller. 1998. Footprinting and modification-interference analysis of binding sites on RNA, p. 237-253. In C. W. J. Smith (ed.), RNA:Protein Interactions, A Practical Approach. Oxford University Press, Oxford), with minor modifications. Briefly, 200 nM ribosomes were incubated with 100 μM antibiotic in 50 μL of buffer B (80 mM HEPES-KOH [pH 7.8], 20 mM MgCl2, 100 mM NH4Cl, 1.5 mM dithiothreitol) for 10 min at 37° C., followed by 10 min at 20° C. Modifying reagents (dimethyl sulfate [DMS], kethoxal, or 1-cyclohexyl-3-(2-morpholinoethyl)carbodiimide metho p-toluene sulfonate [CMCT]) were added and the modification reaction was carried out for 10 min at 37° C. After quenching the reaction and ethanol precipitation, rRNA was extracted and the distribution of modified nucleotides was assessed by primer extension.
Interactions of CEM-101 with wild-type E. coli and S. aureus ribosomes in solution. […] 1987. Chloramphenicol, erythromycin, carbomycin and vernamycin B protect overlapping sites in the peptidyl transferase region of 23S ribosomal RNA. Biochimie 69:879-884). Also included in this study was a C3-cladinose cousin of CEM-101, CEM-103, which lacks the C2-linked fluorine atom.

S. aureus 70S ribosomes = test: Saturation (direct) binding of radiolabeled drug to S. aureus wild-type ribosomes, spin-column
Procedure: Ribosomes were prepared from E. coli, strain MRE 600, S. aureus strain ATCC 29212, or S. aureus strain N315 by standard protocols (Spedding™, G. 1990. Isolation and analysis of ribosomes from prokaryotes, eukaryotes, and organelles, p. 1-29. In G. Spedding (ed.), Ribosomes and protein synthesis, a practical approach. Oxford University Press, Oxford, United Kingdom; Adams, P. D., P. V. Afonine, G. Bunkoczi, V. B. Chen, I. W. Davis, N. Echols, J. J. Headd, L. W. Hung, G. J. Kapral, R. W. Grosse-Kunstleve, A. J. McCoy, N. W. Moriarty, R. Oeffner, R. J. Read, D. C. Richardson, J. S. Richardson, T. C. Terwilliger, and P. H. Zwart. 2010. PHENIX: a comprehensive Python-based system for macromolecular structure solution. Acta Crystallogr. D. Biol. Crystallogr. 66:213-221).
Competition binding studies. […]
Direct antibiotic binding experiments were done by incubating ribosomes at a 100 nM concentration with varying concentrations of radiolabeled drug in a total volume of 160 μL in buffer A (20 mM Tris-HCl [pH 7.5], 10 mM MgCl2, 150 mM NH4Cl, 6 mM 2-mercaptoethanol) at 37° C. for 15 min, then at 20° C. for 10 min. […] Radioactivity was measured in a scintillation counter and used to calculate the amount of the radiolabeled drug bound to ribosomes.

For `CC[C@H]1OC(=O)[C@@](C)(F)C(=O)[C@H](C)[C@@H](O[C@@H]2O[C@H](C)C[C@H](N(C)C)[C@H]2O)[C@](C)(OC)C[C@@H](C)C(=O)[C@H](C)[C@H]2N(CCCCn3cc(-c4cccc(N)c4)nn3)C(=O)O[C@]12C` [CEM-101], the MIC50 ([1]; read-out: MIC50) was 0.03 µg/mL (≈ 0.0355 µM), the MIC90 ([1]; read-out: MIC90) was 0.03 µg/mL (≈ 0.0355 µM) and the MIC50 [2] was 0.125 µg/mL (≈ 0.148 µM). The MIC90 ([2]; S. pyogenes Tel^R, Mac^R, 9 strains (8 ermB, 1 ermA, constitutive), read-out: MIC90) was 0.25 µg/mL (≈ 0.296 µM), the MIC50 ([3]; read-out: MIC50) was 0.03 µg/mL (≈ 0.0355 µM) and the MIC90 ([3]; read-out: MIC90) was 0.03 µg/mL (≈ 0.0355 µM). For the same molecule, the MIC50 ([4]; read-out: MIC50) was 0.5 µg/mL (≈ 0.592 µM), the MIC90 ([4]; read-out: MIC90) was 0.5 µg/mL (≈ 0.592 µM) and the “Effect on the synthesis of luciferase” value [5] was “no effect”. The “Protection of A752 from DMS modification” value ([6]; S. aureus ribosomes) was “strongly protects”, the “Protection of A2058 and A2059 in domain V of 23S rRNA from modification with DMS” value ([6]; S. aureus wild-type ribosomes) was “protect” and the Kd (S. aureus 70S ribosomes) was 50 ± 13 nM.
